Columns and labels:
[1] = Blood glucose and ketone body (beta-hydroxy-butyrate) concentrations after treatment in lactating cows; assay type: in vivo, Holstein-Frisian cows; settings: after treatment with all dosages (0.03, 0.3, 3 mg/kg bodyweight i.v.)
Description: (§1) Velagliflozin treatment is tested in n=4 lactating Holstein-Frisian cows. In weekly intervals, velagliflozin is administered intravenously (i.v.) in increasing doses (0.03 mg/kg bodyweight-0.3 mg/kg bodyweight-3 mg/kg bodyweight) in the morning after AM (ante meridian) milking into the right jugular vein in a volume of 2.5 ml of a propylene glycol based solution per 100 kg body weight. Blood samples for determination of velagliflozin plasma levels and urine samples for determination of glucose and creatinine levels are collected one day prior to treatment and ˜8 hours, ˜24 hours and ˜48 hours post treatment and stored frozen until being analysed. Blood glucose and ketone body (beta-hydroxy-butyrate) concentrations are determined immediately after blood collection at the same time points. The total urinary creatinine excreted per day is rather constant in mammals, thus, since urine volume was not determined, the glucose to creatinine ratio was calculated as a surrogate of the total glucose excretion. All animals are milked twice daily, in the morning (ante meridian—AM) and in the late afternoon (post meridian—PM). Throughout the study, milk yield is recorded as kg per animal per milking.

[2] = Velagliflozin plasma levels after single i.v. dosing in lactating cows; assay type: in vivo, Holstein-Frisian cows; settings: i.v. 0.03, 0.3, 3 mg/kg bodyweight, n=4 lactating cows; FIG. 1
Description: as §1

[3] = system: lactating Holstein-Frisian cows; test: Milk yield per milking after single i.v. dosing in lactating cows; assay type: in vivo; settings: i.v. 0.03, 0.3, 3 mg/kg bodyweight after AM milking; PM milking about 8 hours after administration; FIG. 2
Description: as §1

[4] = system: lactating Holstein-Frisian cows; test: Urinary glucose excretion normalized to urinary creatinine after single i.v. dosing in lactating cows; assay type: in vivo; settings: i.v. 0.03, 0.3, 3 mg/kg bodyweight; urine ~8 h, ~24 h, ~48 h post treatment; FIG. 1
Description: as §1

blood glucose level [1]: within normal reference ranges
ketone body level ([1]; beta-hydroxy-butyrate): within normal reference ranges
Velagliflozin plasma level [2]: linear dose to exposure relationship
Structure (SMILES): N#Cc1ccc([C@@H]2O[C@H](CO)[C@@H](O)[C@H](O)[C@H]2O)cc1Cc1ccc(C2CC2)cc1 [velagliflozin, Velagliflozin]
milk yield of the subsequent milking (PM) [3]: decreases in a dose/exposure dependent manner
urinary glucose excretion normalized to urinary creatinine [4]: increases in a dose/exposure dependent manner
